These results are taken from patent EP1541559A1, “5-SUBSTITUTED ISOQUINOLINE DERIVATIVE” (Asahi Kasei Pharma Corporation, priority 2002, dated 2004).

In assay [1] the test system is thoracic aorta. The experiment in a line: Vasoconstriction inhibitory action on aorta rings constricted with phenylephrine (Test Example 2). Also on record: species or system Rats (Wistar, 11-week old). The note with it: aorta constricted with phenylephrine (1 µM); for vasoconstriction inhibitory action: result in words. The text has this: Rats (Wistar, 11-week old) were bleeded to death and laparotomized to take out the thoracic aorta.

In assay [2] the test system is myosin regulatory light chain. The experiment in a line: Action on amount of phosphorylated myosin regulatory light chain in the cells (Test Example 1). Format: cell-based, human. The following applies: neutrophils of healthy volunteers, reaction with test compound at 25°C for 5 minutes, read-out: Inhibition of myosin regulatory light chain phosphorylation (IC50: µM). Here is the method:
The neutrophils were washed with PBS(-) and resuspended in Hanks' Balanced Salt Solution (HBSS+, Gibco) to prepare a cell suspension (8 x 10^6/ml). The cell suspension was diluted to 5 x 10^6/ml, introduced into Eppendorf tubes in a volume of 0.4 ml each, then 0.1 ml each of solutions of a test compound at various concentrations were added to the suspension and allowed to react at 25°C for 5 minutes. After the reaction, 0.1 ml of trichloroacetic acid solution was added to each reaction, the reaction mixture was gently shaken and centrifuged at 12,000 rpm (4°C, 5 minutes), and the supernatant was removed. Subsequently, 3 μl of 1 M Tris solution was added to the residue, the mixture was further mixed with 50 μl of extraction buffer (8 M urea, 0.02% 2-mercaptoethanol, 0.002% bromophenol blue) and left stand at room temperature for 1 hour. Then, the reaction mixture was loaded on a spin column (0.45 μm, Millipore) to remove the insoluble solids and a sample buffer for SDS polyacrylamide gel electrophoresis (25 mM, Tris-HCl pH 6.8, 2.5% 2-mercaptoethanol, 2% sodium dodecylsulfate, 5% sucrose, 0.002% bromophenol blue as final concentrations) was added, and 10 μl of each sample was subjected to electrophoresis. […] J. Physiol., 274, […]-[…] (1998)), which specifically recognize the phosphorylated myosin regulatory light chain, and donkey anti-mouse IgG (Chemicon) conjugated with horseradish peroxidase (HRP-labeled). The band of the phosphorylated myosin regulatory light chain was detected on a film by using ECL Plus Kit (Amersham Pharmacia Biotech). This band was subjected to quantification using a densitometer. By using this value, the inhibitory ratio (%) for phosphorylation of the myosin regulatory light chain was calculated by using the following equation.

Assay [3] concerns Neutrophils. The assay is described as follows: Neutrophil migration inhibitory action, Boyden Chamber, FMLP (Test Example 5). The class given is cell-based, human. The following applies: Homo sapiens, Neutrophil, 0.5 h, FMLP (1 µM), migration at 37°C for 30 minutes; read-out: Neutrophil migration inhibition IC50. The method, then: Neutrophils were isolated from 50 to 100 ml of peripheral blood collected from healthy donors by the method described in Test Example 1 to obtain a cell suspension (8 x 10^6/ml). Subsequently, solutions of a test compound at various concentrations were introduced into wells of a 96-well plate in a volume of 125 µl per well, the cell suspension of an equivalent volume was added to it and the plate was preincubated at room temperature for 5 minutes. During the preincubation, FMLP (1 µM, Sigma) solution was added to the lower chamber to set Boyden Chamber, the preincubated cell suspension was added to the upper chamber in a volume of 200 µl per well, and the cells were allowed to migrate at 37°C under 5% carbon dioxide for 30 minutes. The filter after the migration was collected, and the non-migrated cells adhered to the surface that faced the upper chamber were carefully wiped off. Then, the migrated cells on the back surface were stained with DifQuick dye solution (International Reagents), washed with water and dried, and then absorbance was measured at 595 nm. The inhibition ratio against migration (%) of a test compound was calculated by using the following equation: Migration inhibition ratio (%) = (1 -Absorbance of the group with addition of test compound /Absorbance of the group without addition of test compound) x 100 [formula]

The test system of assay [4] is human neutrophil fraction. The assay is described as follows: Action on increase of intracellular calcium concentration, Fura2-AM, fMLP (Test Example 7). Format: cell-based. The note with it: test compound 1 µM added 3 minutes before fMLP (1 µM), R = F340/F380, without test compound = 100%, read-out: Maximum R value (%). Here is the method:
According to the method described in Test Example 1, a neutrophil containing fraction was prepared. Fura2-AM (Sigma) at a final concentration of 3 µM was added to the human neutrophil fraction and the mixture was incubated at 37°C for 1 hour. After centrifugation (250 g for 5 minutes), the supernatant was discarded, and the neutrophils were resuspended in Hanks' Balanced Salt Solution (HBSS, Gibco) to prepare a cell suspension (8 x 10^6/ml) for measurement of intracellular calcium concentration. The cell suspension for measurement of intracellular calcium concentration was left stand at room temperature for 30 minutes. Then, 490 µl of the cell suspension for measurement of intracellular calcium concentration was placed in a cuvette, 10 µl of calcium chloride solution at a final concentration of […] was added to it and the cuvette was set in an intracellular calcium concentration analyzer (CAF110, Nippon Bunko). fMLP (Sigma) solution at a final concentration of 1 µM was added to the cell suspension, and F340 and F380, which are fluorescence intensity at 340 nm and 380 nm, respectively, were measured to obtain an R value (F340/F380) as an index of the intracellular calcium concentration. A test compound (1 µM) was added 3 minutes before the addition of fMLP, and the action on the intracellular calcium concentration was observed. The ratios of the maximum R value obtained with addition of each test compound, based on the maximum R value obtained without addition of test compound and taken as 100%, are shown in Table 10 mentioned below.
(In general: A change in cytosolic calcium serves as a functional read-out for many receptors and channels.)

Assay [5] relates to BALB/c female mice. The assay is described as follows: Respiratory tract inflammation suppressing action, OVA-induced (Test Example 6). Format: in vivo. The method, then:
According to the method described in Henderson, W.R., et al., Am. J. Respir. Cric. Care Med., 165(1), 108-116 (2002), suppressing action on bronchial inflammation was confirmed. BALB/c female mice (7-week old) were used for the test, each group consisting of 7 mice, and the control group consisting of 11 or 12 mice. The mice were intraperitoneally administered with ovalbumin (OVA, 100 ng, Sigma) and 1 mg of aluminum hydroxide for initial immunization, and after 2 weeks, they are subcutaneously administered with 10 ng of OVA as additional immunization. After further 1 week, a test compound was dissolved in water containing 0.5% carboxymethylcellulose and orally administered (30 mg/kg) to the test animals once a day for 5 days. The control group was similarly given only with water containing 0.5% carboxymethylcellulose. After 1 hour, the mice were orally inhaled with 2% OVA for 10 minutes to induce a respiratory tract inflammation. Further, the control group, in which the mice were not given with the test compound, was divided into a positive control group (n = 7), in which the mice were inhaled with 2% OVA to induce the reaction, and a negative control group (n = 4 or 5), in which the mice were similarly inhaled with physiological saline. After 24 hours, alveoli in the lungs of the test animals were washed with physiological saline, and the total infiltrated white blood cells (WBC) were counted.

Assay [6] has as its system ovalbumin-immunized guinea pigs. The experiment in a line: Respiratory tract constriction suppression action, ovalbumin-induced (Test Example 3). The class given is in vivo, Hartley guinea pigs. The following applies: result in words; test medicament given into hind leg vein after induction with 0.3 mg/kg ovalbumin, measured for 15 minutes. The method, then: Four-week old Hartley guinea pigs (male) were immunized by intraperitoneal administration of ovalbumin (Sigma, Grade V) in amounts of 1 mg for each animal on the day on which the experiment was started, 3 mg for each animal after 2 days, and 10 mg for each animal after 4 days. Twelve to fourteen days after the final immunization, the ovalbumin-immunized guinea pigs were anesthetized by intraperitoneal administration of about 40 mg/kg of pentobarbital (Somnopentyl), and the tracheas were taken out. Subsequently, a cannula (SP-110, Natsume) was inserted into each trachea, and one end of the cannula was connected to an artificial respirator (Model-b83, Harvard). The aeration conditions were set at 6 ml per kilogram and 60 times per 1 minute. Further, a cannula for medicament administration (JMS wing needle 23G 3/4) was inserted into a hind leg vein. Myoblock (Organon Technica) was administered in an amount of 0.5 mg/kg from the cannula inserted into the hind leg vein to stop the spontaneous breathing, and after 2 or 3 minutes, 0.3 mg/kg of ovalbumin was administered to induce constriction of respiratory tract. The increase of airway resistance value 2 minutes after the induction (measurement apparatuses: pressure transducer TR-603T, respiratory amplifier AR-601G, and recorder RTA-3100, Nihon Kohden Corp.) was confirmed to be above 80 cm H2O or higher, and then, a solution of a test medicament was administered from the cannula inserted into the hind leg vein, and the airway resistance value was continuously measured for 15 minutes after the administration to determine the effect.

Assay [7] concerns Japanese white rabbit. The assay is described as follows: Intraocular pressure reducing action (Test Example 4). The class given is in vivo. The note with it: result in words. Here is the method:
A Japanese white rabbit having a body weight of about 2 kg was placed in a positioner and naturalized for one week before the experiment. An ophthalmologic local […] (Benoxil) was administered to the left eye, and then intraocular pressure was measured by using a tonometer (Classic 30, Solan). The initial value of the intraocular pressure was measured, then 50 μl of a test compound (1% aqueous solution) was dropped to the left eye, and after 2 hours, the intraocular pressure was measured. The intraocular pressure reducing action of the test compounds is shown in Table 7 mentioned below as ratios (%) of reduction of intraocular pressure based on the initial value of the intraocular pressure.

The mark [8] stands for this setting: Homo sapiens, Neutrophil, 5 min.

Like-named read-outs stand apart in the source and are kept apart here. Where only a bound is given, the exact number is not on record here.

For `Cc1cncc2cccc(S(=O)(=O)N(CCCN)CCCc3ccccc3)c12.Cl` [Example 5, N-[(4-Methyl-5-isoquinolyl)sulfonyl]-N-(3-phenylpropyl)-1,3-propylenediamine hydrochloride], the vasoconstriction inhibitory action entry in assay [1] was “significant vasoconstriction inhibitory action”. The IC50 is 0.8 µM in assay [2] (setting [8]) and no more than 1 µM in assay [3]. Besides, the activity at 1 µM in assay [4] was 98%.
The like results for `Cl.NCCCN(CCCc1ccccc1)S(=O)(=O)c1cccc2c(N)nccc12` [Example 8, N-[(1-Amino-5-isoquinolyl)sulfonyl]-N-(3-phenylpropyl)-1,3-propylenediamine hydrochloride] were, in that order, “significant vasoconstriction inhibitory action”, 0.3 µM, no more than 1 µM and 99%.
For `Cl.NCCN(CCS(=O)(=O)c1ccccc1)S(=O)(=O)c1cccc2c(O)nccc12` [Example 12, N-[(1-Hydroxy-5-isoquinolyl)sulfonyl]-N-[2-(phenylsulfonyl)ethyl]ethylenediamine hydrochloride], in assay [1], the vasoconstriction inhibitory action entry is on record as “significant vasoconstriction inhibitory action”. Moreover, the “Total WBC count x 10E5/ml/mouse” value in assay [5] (orally 30 mg/kg once a day for 5 days, inhalation of 2% OVA, alveoli washed after 24 hours) came to 100 x 10E5/ml/mouse. The results for the IC50 in assay [2] (setting [8]) and in assay [3] were 20 µM and 1 to 10 µM, respectively. For the same compound, the “constriction of respiratory tract (airway resistance value)” value (from here on “constriction of respiratory tract”) in assay [6] is listed as “significantly improved the constriction of respiratory tract”.
Consider `Cl.c1cc(NC2CCNCC2)c2ccncc2c1` [Example 20, 4-(5-Isoquinolyl)aminopiperidine hydrochloride], for which the inhibition at 1 µM in assay [1] (Rattus norvegicus, test compound 1 µM, read-out: Vasoconstriction inhibitory action (relaxation ratio) (%)) is 82.8%. For the same compound, the IC50 is 1.8 µM in assay [2] (setting [8]) and 1 to 10 µM in assay [3]. Besides, the “constriction of respiratory tract” value in assay [6] is given as “significantly improved the constriction of respiratory tract”. Also, in assay [4], the activity at 1 µM came out at 100%.
Take `Cc1cncc2cccc(NC3CCNCC3)c12.Cl` [Example 106, 4-(4-Methyl-5-isoquinolyl)aminopiperidine hydrochloride]: the vasoconstriction inhibitory action result in assay [1] is “significant vasoconstriction inhibitory action”. Also, in assay [5] (result in words), the “infiltrated white blood cell number” value is “decrease of infiltrated white blood cell number”. In addition, the figures for the IC50 in assay [2] (setting [8]), in assay [2] (hydrochloride) and in assay [3] were no more than 40 µM, no more than 20 µM and 10 to 40 µM, respectively. Further, the “constriction of respiratory tract” value in assay [6] is “significantly improved the constriction of respiratory tract”.
Take `Cc1cncc2cccc(O[C@H]3CC[C@H](N)CC3)c12.Cl` [Example 140, Trans-4-[(4-methyl-5-isoquinolyl)oxy]cyclohexylamine hydrochloride]: the vasoconstriction inhibitory action entry in assay [1] is “significant vasoconstriction inhibitory action”. Also, the IC50 in assay [2] (setting [8]) was no more than 40 µM; in assay [2] (hydrochloride), no more than 20 µM. In addition, the “constriction of respiratory tract” value in assay [6] is “significantly improved the constriction of respiratory tract”. The “intraocular pressure reducing activity” value in assay [7] was “significant intraocular pressure reducing activity”.
`Cl.OCCN1CCC(Nc2cccc3cnccc23)CC1` [Example 144, 1-(2-Hydroxyethyl)-4-(5-isoquinolyl)aminopiperidine hydrochloride]: the IC50 in assay [2] (setting [8]) is no more than 40 µM. Besides, in assay [6], the “constriction of respiratory tract” value is “significantly improved the constriction of respiratory tract”. Further, the “intraocular pressure reducing activity” value in assay [7] is recorded as “significant intraocular pressure reducing activity”.
As to `Cc1cncc2cccc(NC3CCN(CCO)CC3)c12.Cl` [Example 146, 1-(2-Hydroxyethyl)-4-(4-methyl-5-isoquinolyl)aminopiperidine hydrochloride], the vasoconstriction inhibitory action result in assay [1] was “significant vasoconstriction inhibitory action”. Also, the IC50 in assay [2] (setting [8]) is no more than 40 µM; in assay [2] (hydrochloride), no more than 20 µM; in assay [3] it was no more than 40 µM. Moreover, the “constriction of respiratory tract” value in assay [6] was “significantly improved the constriction of respiratory tract”. Further, the “intraocular pressure reducing activity” value in assay [7] is on record as “significant intraocular pressure reducing activity”.
